According to paper PMC7531004, “Discovery of gramicidin A analogues with altered activities by multidimensional screening of a one-bead-one-compound library” (Nature Communications, 2020):
Where “and” joins values, the source holds several entries; their conditions need not be identical. Equal entries are not always repeated. Where two headings read alike, the source gives them in different places. Where a SMILES comes first, the peptide text is derived from it. [ ]: non-standard residue; d: D form. The star is where a group is joined. NHCH2CH2OH = OCCN*; For = O=C*

Experiments:
[1] = tested on: MSSA1 (methicillin-susceptible Staphylococcus aureus); format: cell-based
Method: (§1) Evaluation of antibacterial spectra of purified peptides. The MIC assay was performed according to the Clinical and Laboratory Standards Institute protocols. The antibacterial activities of the purified peptides A1, B01–B04, B11–B13, B21, and B22 were measured using the broth microdilution method. 6 Serial dilutions of the peptides were prepared in cation adjusted Mueller Hinton Broth. Each dilution (100 µL) was dispensed to each well of the round-bottom plate to obtain final concentrations ranging from 64 µg/mL to 0.00024 µg/mL. Bacteria were grown at 37 °C overnight on Tryptic Soy Broth or Mueller Hinton Broth agar plates.
(§2) The bacterial colonies were suspended in 0.9% saline to obtain OD 625 of 0.08–0.13 using a spectrophotometer UV-1280 (Shimadzu). The resultant suspension was diluted with cation adjusted Mueller Hinton Broth (1/20). The resultant mixture (10 .0 µL) was inoculated to each well of the plates (approximately 5 × 10^4 CFU/well), mixed, and incubated at 37 °C for 18–24 h. The MIC value was determined as the minimum concentration that inhibited growth of bacteria. For Streptococcus species, cation adjusted Mueller Hinton Broth supplemented with 5% laked horse blood was used. […]

rabbit red blood cells = settings: red cells of rabbit, 2 h
Method: Second, we examined the cytotoxicity toward mammalian cancer cells and hemolytic activity of 1. […] Hemolytic activity was evaluated by monitoring hemoglobin leakage from rabbit red blood cells as a consequence of membrane damage. The concentration of 1 required to cause 10% hemoglobin leakage (HC10) was 160 nM. Thus, the P388 cytotoxicity of 1 was 28-fold more sensitive than its hemolytic activity.
Hemolysis assay of purified peptides. […]
with DMSO to various concentrations as 3-fold serial dilution. A 50% suspension of rabbit blood in Alsever's solution was obtained from Nippon Bio -Supp. Center . The blood suspension (250 µL) w as diluted with phosphate buffered saline (no calcium, no magnesium, 1.00 mL). The resultant suspension was centrifuged at 1000 × g for 3 min at 8 °C. The supernatant was discarded, and the collected cells were resuspended in phosphate buffered saline (no calcium, no magnesium, 1.00 mL). The same procedure was repeated (× 3). The resultant suspension (100 µL) was diluted with phosphate buffered saline (no calcium, no magnesium, 4.90 mL) to give 0.2% red blood cells suspension. The 0.2% red blood cells suspension (95.0 µL) and each dilution series of the purified peptide in DMSO (5 .0 µL) were mixed in 2 mL microtube.
supernatant was transferred to a 96-well plate (TR5003, TrueLine). The absorbance of each well at 415 nm was measured using a Thermo Scientific Multiskan GO (Thermo Fisher Scientific). The mixture of Triton X-100/H2O (5/95, 2.0 µL), DMSO (5.0 µL), and the 0.2% red blood cells suspension (95.0 µL) was used to determine 100% hemolysis. The mixture of DMSO (5.0 µL) and the 0.2% red blood cells suspension (95.0 µL) was used to determine 0% hemolysis. The hemolytic activities of tested peptides ( I) were normalized against 100% hemolysis by Triton X -100 (Imax) and 0% hemolysis by DMSO (I0) according to Supplementary Equation 3, where Ix is the UV absorbance.
I = 100 × (Ix – I0) / (Imax – I0) (3)
The hemolytic activities of the purified peptides were evaluated as the concentrations causing 10% hemolysis (HC10, nM) by means of three replicates. Sigmoidal curve fittings were performed on GraphPad Prism (GraphPad software, Supplementary Figure 7).

[2] = tested on: Streptococcus agalactiae JCM5671; settings: for Antibacterial activity MIC: JCM5671; for antibacterial activity/MIC: S. agalactiae
Method: (§3) Third, 1 was subjected to five pathogenic Gram-positive bacteria.
as §1, §2

[3] = tested on: Streptococcus pneumoniae NBRC 102642; settings: for Antibacterial activity MIC: NBRC 102642; for antibacterial activity/MIC: S. pneumoniae
Method: as §3, §1, §2

[4] = tested on: Enterococcus faecalis JCM5803; settings: for antibacterial activity/MIC: E. faecalis; for Antibacterial activity MIC: JCM5803
Method: as §3, §1, §2

[5] = tested on: Listeria monocytogenes 10403S; settings: for Antibacterial activity MIC: 10403S; for antibacterial activity/MIC: L. monocytogenes
Method: as §3, §1, §2

[6] = tested on: Streptococcus pyogenes SSI-9; settings: for antibacterial activity/MIC: S. pyogenes; for Antibacterial activity MIC: SSI-9
Method: as §3, §1, §2

[7] = H+/Na+ transport assay of purified peptides; settings: for Supplementary Figure 5 dose-response value (H+/Na+ transport): three replicate lines
Method: First, we evaluated the ion channel function of 1 using liposomes. To mimic a negatively charged Gram-positive bacterial membrane, the liposomes were prepared as large unilamellar vesicles (LUVs) comprising a 19:1 mixture of egg yolk phosphatidylcholine (EYPC) and egg yolk phosphatidylglycerol (EYPG)[57]. Pyranine, a pH-dependent fluorescent dye[58], was encapsulated in the LUVs and a pH gradient was applied across the membrane. H^+/Na^+ transport induced by a peptide was monitored by changes in the fluorescence intensity of pyranine.

[8] = read-out: EC50, H+/Na+ transport assay, 1st experiment
[9] = read-out: EC50, H+/Na+ transport assay, 2nd experiment
[10] = read-out: EC50, H+/Na+ transport assay, 3rd experiment
[11] = read-out: H+/Na+ transport activity EC50, EYPC/EYPG (19:1) LUVs
[12] = read-out: H+/Na+ transport activity/EC50, mean ± SD of three independent experiments

SMILES | antibacterial activity/MIC [1] | Hemolytic activity HC10 (concentration causing 10% hemolysis) (rabbit red blood cells) | Antibacterial activity MIC [2] | antibacterial activity/MIC [2] | Antibacterial activity MIC [3] | antibacterial activity/MIC [3] | antibacterial activity/MIC [4] | Antibacterial activity MIC [4] | antibacterial activity/MIC [5] | antibacterial activity/MIC [6] | Antibacterial activity MIC [6] | Supplementary Figure 5 dose-response value (H+/Na+ transport) ([7]; concentration 0.000512 nM) | Supplementary Figure 5 dose-response value (H+/Na+ transport) ([7]; concentration 0.00256 nM) | Supplementary Figure 5 dose-response value (H+/Na+ transport) ([7]; concentration 0.0128 nM) | Supplementary Figure 5 dose-response value (H+/Na+ transport) ([7]; concentration 0.064 nM) | Supplementary Figure 5 dose-response value (H+/Na+ transport) ([7]; concentration 0.32 nM) | Supplementary Figure 5 dose-response value (H+/Na+ transport) ([7]; concentration 1.6 nM) | Supplementary Figure 5 dose-response value (H+/Na+ transport) ([7]; concentration 8 nM) | Supplementary Figure 5 dose-response value (H+/Na+ transport) ([7]; concentration 40 nM) | Supplementary Figure 5 dose-response value (H+/Na+ transport) ([7]; concentration 200 nM) | also measured
CC(C)C[C@@H](NC(=O)[C@H](C)NC(=O)[C@H](NC(=O)[C@H](C)NC(=O)CNC(=O)[C@@H](NC=O)C(C)C)[C@H](C)O)C(=O)N[C@H](C(=O)N[C@H](CC(C)C)C(=O)N[C@@H](Cc1c[nH]c2ccccc12)C(=O)N[C@@H](C(=O)N[C@@H](Cc1c[nH]c2ccccc12)C(=O)N[C@H](CC(C)C)C(=O)N[C@@H](Cc1c[nH]c2ccccc12)C(=O)N[C@@H](C(=O)N[C@@H](Cc1c[nH]c2ccccc12)C(=O)NCCO)C(C)C)[C@H](C)O)C(C)C [B21] (For-VGA[dT]A[dL]V[dL]W[dT]W[dL]W[dV]W-NHCH2CH2OH) | 16 µg/mL | > 3000 nM | 34 µM | 64 µg/mL | 0.53 µM | 1 µg/mL | 8 µg/mL | 4.3 µM | > 64 µg/mL | 32 µg/mL | 17 µM | 2.384 and 1.443 and 2.029 | 3.95 and 1.0017 and 1.216 | 7.632 and 2.998 and 3.58 | 6.775 and 3.579 and 3.365 | 12.3823 and 9.367 and 13.3536 | 41.7064 and 40.5042 and 40.751 | 73.419 and 69.4178 and 73.375 | 75.8465 and 74.348 and 76.0982 | 78.878 and 79.2127 and 80.049 | Antibacterial activity MIC [5]: > 34 µM; Supplementary Figure 5 dose-response value (H+/Na+ transport) ([7]; concentration 1000 nM): 81.8535 and 78.0432 and 78.4426; Supplementary Figure 5 dose-response value (H+/Na+ transport) ([7]; concentration 5000 nM): 82.5653 and 78.9179 and 76.8722; EC50 [7, 8]: 1.57 nM; EC50 [7, 9]: 1.58 nM; EC50 [7, 10]: 1.32 nM; EC50 [7, 11]: 1.5 nM; EC50 [7, 12]: 1.49 ± 0.15 nM
CC(C)C[C@@H](NC(=O)[C@H](C)NC(=O)CNC(=O)[C@@H](NC=O)C(C)C)C(=O)N[C@@H](C)C(=O)N[C@@H](C(=O)N[C@H](C(=O)N[C@@H](C(=O)N[C@@H](Cc1c[nH]c2ccccc12)C(=O)N[C@H](CC(C)C)C(=O)N[C@@H](Cc1c[nH]c2ccccc12)C(=O)N[C@H](CC(C)C)C(=O)N[C@@H](Cc1c[nH]c2ccccc12)C(=O)N[C@H](CC(C)C)C(=O)N[C@@H](Cc1c[nH]c2ccccc12)C(=O)NCCO)[C@H](C)O)C(C)C)C(C)C [B13] (For-VGA[dL]A[dV]V[dT]W[dL]W[dL]W[dL]W-NHCH2CH2OH) | 8 µg/mL | > 3000 nM | 4.2 µM | 8 µg/mL | 0.033 µM | 0.063 µg/mL | 4 µg/mL | 2.1 µM | 2 µg/mL | 1 µg/mL | 0.53 µM | 3.017 and 1.952 and 2.608 | 3.102 and 3.766 and 3.197 | 2.802 and 3.448 and 5.087 | 7.573 and 8.7038 and 6.571 | 17.1662 and 17.5754 and 16.2478 | 34.5009 and 38.0687 and 36.068 | 62.5081 and 62.2715 and 60.6584 | 69.7421 and 65.8817 and 68.9295 | 70.9489 and 69.9169 and 66.3002 | Supplementary Figure 5 dose-response value (H+/Na+ transport) ([7]; concentration 1000 nM): 70.4102 and 68.4527 and 68.0392; Supplementary Figure 5 dose-response value (H+/Na+ transport) ([7]; concentration 5000 nM): 77.0905 and 71.4732 and 77.0208; EC50 [7, 8]: 1.54 nM; EC50 [7, 9]: 1.6 nM; EC50 [7, 10]: 1.51 nM; EC50 [7, 11]: 1.6 nM; EC50 [7, 12]: 1.55 ± 0.04 nM
CC(C)C[C@@H](NC(=O)[C@H](C)NC(=O)CNC(=O)[C@@H](NC=O)C(C)C)C(=O)N[C@@H](C)C(=O)N[C@@H](C(=O)N[C@H](C(=O)N[C@@H](C(=O)N[C@@H](Cc1c[nH]c2ccccc12)C(=O)N[C@H](CC(C)C)C(=O)N[C@@H](Cc1c[nH]c2ccccc12)C(=O)N[C@H](CC(C)C)C(=O)N[C@@H](Cc1c[nH]c2ccccc12)C(=O)N[C@H](CC(C)C)C(=O)N[C@@H](Cc1c[nH]c2ccccc12)C(=O)NCCO)C(C)C)C(C)C)C(C)C [compound 1, Gramicidin A] (For-VGA[dL]A[dV]V[dV]W[dL]W[dL]W[dL]W-NHCH2CH2OH) | 32 µg/mL | 160 nM | 1.1 µM | 2 µg/mL | 0.0083 µM | 0.016 µg/mL | 0.5 µg/mL | 0.27 µM | 8 µg/mL | 0.063 µg/mL | 0.033 µM | 0.1393 and -1.026 and 0.8168 | 2.399 and 0.2926 and 2.304 | 3.982 and 3.019 and 2.7829 | 7.464 and 5.495 and 5.604 | 9.988 and 12.6133 and 15.027 | 25.261 and 17.8892 and 24.5099 | 43.5648 and 41.9563 and 41.0019 | 66.4966 and 62.6758 and 58.9306 | 70.2683 and 64.7328 and 64.4099 | Antibacterial activity MIC [5]: 4.3 µM; EC55.2 value (threshold concentration of one-point ion transport assay) ([7]; H+/Na+ transport): 5.9 nM; Supplementary Figure 5 dose-response value (H+/Na+ transport) ([7]; concentration 1000 nM): 68.3656 and 69.2628 and 73.7672; Supplementary Figure 5 dose-response value (H+/Na+ transport) ([7]; concentration 5000 nM): 72.2926 and 68.3983 and 71.8941; EC50 [7, 8]: 4.66 nM; EC50 [7, 9]: 3.91 nM; EC50 [7, 10]: 4.81 nM; EC50 [7, 11]: 4.5 nM; EC50 [7, 12]: 4.46 ± 0.48 nM
